# Source: ChEMBL document CHEMBL1129898, “An exceptionally potent analog of sandramycin” (Bioorg Med Chem Lett, 1997)
# Assays:
# Assay type in all cases: functional, cell-based
# B16 = assay: The compound was tested in vitro for cytotoxic activity against B-16 cell line (mouse melanoma)
# H322 = assay: The compound was tested in vitro for cytotoxic activity against H 322 cell line (human lung adenocarcinoma); details: NCI-H322
# HL-60 = assay: The compound was tested in vitro for cytotoxic activity against HL-60 cell line (human promyelomic leukemia)
# HT-29 = assay: The compound was tested in vitro for cytotoxic activity against HT-29 cell line (human colon adenocarcinoma)
# L1210 = assay: The compound was tested in vitro for cytotoxic activity against L1210 cell line (mouse leukemia)
# [1] = The compound was tested in vitro for cytotoxic activity against M24-MET cell line (human metastatic melanoma); details: M24met
# MCF7 = assay: The compound was tested in vitro for cytotoxic activity against MCF-7 cell line (human breast carcinoma)
# MOLT-4 = assay: The compound was tested in vitro for cytotoxic activity against Molt-4 cell line (human T-cell leukemia)
# OVCAR-3 = assay: The compound was tested in vitro for cytotoxic activity against OVCAR-3 cell line (human ovarian carcinoma)
# PC-3 = assay: The compound was tested in vitro for cytotoxic activity against PC-3 cell line (human prostate carcinoma)
# SK-MEL-28 = assay: The compound was tested in vitro for cytotoxic activity against SK-MEL 28 cell line (human melanoma)
# SiHa = assay: The compound was tested in vitro for cytotoxic activity against SIHA cell line (human cervix carcinoma)
# BT-549 = assay: The compound was tested in vitro for cytotoxic activity against BT-549 cell line (human breast carcinoma)
# [2] = The compound was tested in vitro for cytotoxic activity against UCLA-P3 cell line (human lung adenocarcinoma); details: UCLA P-3
# 786-0 = assay: The compound was tested in vitro for cytotoxic activity against 786-O cell line (human perirenal carcinoma)
smiles,measurement,setting,value
CC(C)[C@H]1C(=O)OC[C@@H](NC(=O)c2ccc3ccccc3n2)C(=O)N2CCCC[C@H]2C(=O)NCC(=O)N(C)CC(=O)N(C)[C@@H](C(C)C)C(=O)OC[C@@H](NC(=O)c2ccc3ccccc3n2)C(=O)N2CCCC[C@H]2C(=O)NCC(=O)N(C)CC(=O)N1C,IC50,B16,0.06 nM
same,IC50,H322,10 nM
same,IC50,HL-60,0.001 nM
same,IC50,HT-29,0.01 nM
same,IC50,L1210,0.2 nM
same,IC50,[1],0.04 nM
same,IC50,MCF7,0.04 nM
same,IC50,MOLT-4,3 nM
same,IC50,OVCAR-3,1 nM
same,IC50,PC-3,0.001 nM
same,IC50,SK-MEL-28,0.001 nM
same,IC50,SiHa,0.001 nM
same,IC50,BT-549,0.01 nM
same,IC50,[2],0.002 nM
same,IC50,786-0,0.01 nM
CC(C)[C@H]1C(=O)OC[C@@H](NC(=O)c2nc3ccccc3cc2O)C(=O)N2CCCC[C@H]2C(=O)NCC(=O)N(C)CC(=O)N(C)[C@@H](C(C)C)C(=O)OC[C@@H](NC(=O)c2nc3ccccc3cc2O)C(=O)N2CCCC[C@H]2C(=O)NCC(=O)N(C)CC(=O)N1C,IC50,B16,0.4 nM
same,IC50,H322,20 nM
same,IC50,HL-60,80 nM
same,IC50,HT-29,1 nM
same,IC50,L1210,0.02 nM
same,IC50,[1],0.4 nM
same,IC50,MCF7,300 nM
same,IC50,MOLT-4,0.7 nM
same,IC50,OVCAR-3,4 nM
same,IC50,PC-3,0.2 nM
same,IC50,SK-MEL-28,1 nM
same,IC50,SiHa,0.3 nM
same,IC50,BT-549,1 nM
same,IC50,[2],10 nM
same,IC50,786-0,8 nM
